Results from patent publication US20010055776A1, “High throughput cell-based assay kits” (priority 2000, published 2001).

Tested on: hemoglobin synthesis in human erythroid progenitors
Assay: Filter plate assay of hemoglobin (HbA) in differentiating erythroid progenitors with Europium-labeled anti-hemoglobin
Format: cell-based
Details: 168 h, 0.5 mM succinylacetone, 1,000 cells/well, 3.0 μm PCF filter plate, IL-3, IL-6, SCF, EPO, 7 days, read-out: succinylacetone-mediated inhibition of hemoglobin
Procedure: FIG. 6. Adult hemoglobin (HbA) expression by differentiating human erythroid progenitors. Cryopreserved progenitors were thawed and seeded into wells of a 96-well PCF filter plate at a density of 1,000 cells/well and cultured in the presence of IL-3, IL-6, EPO, and SCF ±/−0.5 mM succinylacetone. Hemoglobin was assayed by the filter plate procedure on day 7.
To establish the linearity of the assay relative to cell number, peripheral blood erythrocytes were seeded into wells of PCF filter plates (0.4 μm pore size for peripheral blood erythrocytes and 3.0 μm pore size for progenitor cells), fixed with 0.1 ml 1% formaldehyde for 30 minutes and then washed once with Hank's balanced salt solution (HBSS) (0.2 ml/well) and twice with HBSS containing 0.1% bovine serum albumin (BSA). All washes were done in a Millipore Silent Screen vacuum manifold with a vacuum pressure of 5″ Hg.
The cells were then permeabilized by incubation with 0.2 ml 0.1% Triton X-100 in HBSS-BSA for 10 minutes at room temperature. […] Enhancement Solution (Wallac) was added (0.1 ml/well), and after 5 minutes Europium fluorescence (excitation at […] and emission at 615 nm) was measured over a 400 μsecond time period after an initial delay of 400 μseconds with a Wallac Victor spectrofluorimeter. […]

CC(=O)CC(=O)CCC(=O)O [succinylacetone]
inhibition at 500 µM: 86%
